The results in this text go back to patent publication US8461328B2, “Tricyclic heterocyclic compounds, compositions and methods of use thereof” (Genentech, Inc., priority 2010, dated 2013).

What all share (assay type): biochemical
One experiment deals with T1, JAK2 (Homo sapiens, UniProt O60674).
T1 construct: made in house; host or cells: SF9 insect cells (baculovirus)
The experiment is described as follows: JAK2 inhibition (Table 4). The settings on record: read-out: JAK2 Ki.

The target of the next experiment is T2, JAK3 (Homo sapiens, UniProt P52333).
T2 construct: made in house; host or cells: SF9 insect cells (baculovirus)
The experiment is described as follows: JAK3 inhibition (Table 4). The note with it: read-out: JAK3 Ki.

Another experiment concerns the target T3, JAK1 (Homo sapiens, UniProt P23458).
T3 construct: made in house; host or cells: SF9 insect cells (baculovirus)
The experiment is described as follows: JAK1 inhibition (Table 4). The settings on record: read-out: JAK1 Ki.

The target in the next experiment is T4, TYK2 (Homo sapiens, UniProt P29597).
T4 construct: made in house; host or cells: SF9 insect cells (baculovirus)
T4 sequence (P29597 873-1187): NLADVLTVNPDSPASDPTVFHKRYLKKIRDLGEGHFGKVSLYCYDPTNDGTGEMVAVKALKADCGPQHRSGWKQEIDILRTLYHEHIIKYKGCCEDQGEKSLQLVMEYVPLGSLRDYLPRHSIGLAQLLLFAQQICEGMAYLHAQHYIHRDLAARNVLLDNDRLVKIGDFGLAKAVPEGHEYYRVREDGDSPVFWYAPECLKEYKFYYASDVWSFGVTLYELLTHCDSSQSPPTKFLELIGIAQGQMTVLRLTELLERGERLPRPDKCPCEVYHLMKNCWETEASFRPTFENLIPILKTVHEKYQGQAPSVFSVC
The experiment is described as follows: TYK2 inhibition (Table 4).

T3 sequence (P23458 852-1154): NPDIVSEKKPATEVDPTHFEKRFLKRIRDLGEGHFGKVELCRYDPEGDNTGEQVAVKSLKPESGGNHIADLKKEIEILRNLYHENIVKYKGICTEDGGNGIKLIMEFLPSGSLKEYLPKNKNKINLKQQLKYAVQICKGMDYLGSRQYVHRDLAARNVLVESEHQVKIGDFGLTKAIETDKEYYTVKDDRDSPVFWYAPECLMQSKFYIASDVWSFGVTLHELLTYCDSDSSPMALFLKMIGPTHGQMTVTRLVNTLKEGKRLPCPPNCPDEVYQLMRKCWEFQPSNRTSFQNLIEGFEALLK
T2 sequence (P52333 783-1124): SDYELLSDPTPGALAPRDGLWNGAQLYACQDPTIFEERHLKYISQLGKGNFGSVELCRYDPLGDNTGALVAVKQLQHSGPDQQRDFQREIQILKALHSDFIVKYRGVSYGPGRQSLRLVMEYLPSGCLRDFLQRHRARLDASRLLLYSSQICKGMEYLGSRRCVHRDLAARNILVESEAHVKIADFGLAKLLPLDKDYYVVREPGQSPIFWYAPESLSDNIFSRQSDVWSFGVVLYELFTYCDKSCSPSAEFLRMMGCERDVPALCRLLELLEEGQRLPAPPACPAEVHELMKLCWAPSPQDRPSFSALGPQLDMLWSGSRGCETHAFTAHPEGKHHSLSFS
T1 sequence (O60674 812-1132): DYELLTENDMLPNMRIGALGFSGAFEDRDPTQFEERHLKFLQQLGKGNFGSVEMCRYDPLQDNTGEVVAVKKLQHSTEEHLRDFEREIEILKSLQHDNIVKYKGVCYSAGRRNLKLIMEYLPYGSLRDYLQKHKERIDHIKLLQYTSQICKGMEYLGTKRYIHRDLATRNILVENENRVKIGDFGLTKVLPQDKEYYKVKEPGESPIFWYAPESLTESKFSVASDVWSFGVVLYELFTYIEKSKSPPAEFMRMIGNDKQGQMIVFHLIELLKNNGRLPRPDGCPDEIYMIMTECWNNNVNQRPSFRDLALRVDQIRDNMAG

As for `CC(CC#N)N1CCC(n2c(C3CCOC3)nc3cnc4[nH]ccc4c32)CC1` (racemic) [Example 391, 3-{4-[2-(Tetrahydro-furan-3-yl)-6H-1,3,5,6-tetraaza-as-indacen-1-yl]-piperidin-1-yl}-butyronitrile], the Ki at JAK2 amounted to 27.1 nM; on JAK3 it was 35.8 nM; on JAK1, 7.53 nM; on TYK2 it was 91.9 nM.
The corresponding values for `CC(CC#N)N1CCC(n2c(C3CCC3)nc3cnc4[nH]ccc4c32)CC1` (racemic) [Example 392, 3-[4-(2-Cyclobutyl-6H-1,3,5,6-tetraaza-as-indacen-1-yl)-piperidin-1-yl]-butyronitrile] are 16.7 nM, 33.9 nM, 6.67 nM and 128 nM.
On to `CC(CC#N)N1CCC(n2c(C3CCOCC3)nc3cnc4[nH]ccc4c32)CC1` (racemic) [Example 393, 3-{4-[2-(Tetrahydro-pyran-4-yl)-6H-1,3,5,6-tetraaza-as-indacen-1-yl]-piperidin-1-yl}-butyronitrile], for which the Ki is 44.7 nM at JAK2, 29.9 nM on JAK3, 45.6 nM at JAK1 and 382 nM on TYK2.
The matching figures for `CC(CC#N)N1CCC(n2c(CCn3cncn3)nc3cnc4[nH]ccc4c32)CC1` (racemic) [Example 394, 3-{4-[2-(2-[1,2,4]Triazol-1-yl-ethyl)-6H-1,3,5,6-tetraaza-as-indacen-1-yl]-piperidin-1-yl}-butyronitrile]: 37.9 nM, 152 nM, 18.3 nM and 170 nM.
The matching figures for `CC(CC#N)N1CCC(n2c(C3CC(=O)N(C)C3)nc3cnc4[nH]ccc4c32)CC1` (racemic) [Example 395, 3-{4-[2-(1-Methyl-5-oxo-pyrrolidin-3-yl)-6H-1,3,5,6-tetraaza-as-indacen-1-yl]-piperidin-1-yl}-butyronitrile]: 73 nM, 96.5 nM, 17.7 nM and 245 nM.
`CC(CC#N)N1CCC(n2c(CS(C)(=O)=O)nc3cnc4[nH]ccc4c32)CC1` (racemic) [Example 396, 3-[4-(2-Methanesulfonylmethyl-6H-1,3,5,6-tetraaza-as-indacen-1-yl)-piperidin-1-yl]-butyronitrile]: the Ki was determined as 35.9 nM at JAK2, 18.1 nM on JAK3, 15.5 nM at JAK1 and 95 nM on TYK2.
For `CC(=O)N1CCC(c2nc3cnc4[nH]ccc4c3n2C2CCN(C(C)CC#N)CC2)C1` (racemic) [Example 397, 3-{4-[2-(1-Acetyl-pyrrolidin-3-yl)-6H-1,3,5,6-tetraaza-as-indacen-1-yl]-piperidin-1-yl}-butyronitrile], the Ki worked out at 62.4 nM at JAK2, 114 nM on JAK3, 29.9 nM on JAK1 and 269 nM on TYK2.
The matching figures for `CC(=O)N(C)CCc1nc2cnc3[nH]ccc3c2n1C1CCN(C(C)CC#N)CC1` (racemic) [Example 398, N-(2-{1-[1-(2-Cyano-1-methyl-ethyl)-piperidin-4-yl]-1,6-dihydro-1,3,5,6-tetraaza-as-indacen-2-yl}-ethyl)-N-methyl-acetamide]: 47 nM, 179 nM, 20.8 nM and 241 nM.
The matching figures for `CC(CC#N)N1CCC(n2c(CN3CCCC3=O)nc3cnc4[nH]ccc4c32)CC1` (racemic) [Example 399, 3-{4-[2-(2-Oxo-pyrrolidin-1-ylmethyl)-6H-1,3,5,6-tetraaza-as-indacen-1-yl]-piperidin-1-yl}-butyronitrile]: 97.1 nM, 125 nM, 33.1 nM and 179 nM.
`CC(=O)N1CCC(c2nc3cnc4[nH]ccc4c3n2C2CCN(C(C)CC#N)CC2)CC1` (racemic) [Example 400, 3-{4-[2-(1-Acetyl-piperidin-4-yl)-6H-1,3,5,6-tetraaza-as-indacen-1-yl]-piperidin-1-yl}-butyronitrile]: the Ki at JAK2 came to 115 nM; at JAK3, 283 nM; at JAK1, 62.6 nM; at TYK2, 428 nM.
The corresponding values for `CC(CC#N)N1CCC(n2c(CC3CC3)nc3cnc4[nH]ccc4c32)CC1` (racemic) [Example 401, 3-[4-(2-Cyclopropylmethyl-6H-1,3,5,6-tetraaza-as-indacen-1-yl)-piperidin-1-yl]-butyronitrile] are 22.8 nM, 35.4 nM, 9.49 nM and 96.8 nM.
The matching figures for `N#CCCN1CCC(n2c(C3CC3(F)F)nc3cnc4[nH]ccc4c32)CC1` (racemic) [Example 404, 3-{4-[2-(2,2-Difluoro-cyclopropyl)-6H-1,3,5,6-tetraaza-as-indacen-1-yl]-piperidin-1-yl}-propionitrile]: 18 nM, 29.3 nM, 7.27 nM and 100 nM.
Take `N#CCCN1CCC(n2c(CC3CCCOC3)nc3cnc4[nH]ccc4c32)CC1` (racemic) [Example 409, 3-{4-[2-(Tetrahydro-pyran-3-ylmethyl)-6H-1,3,5,6-tetraaza-as-indacen-1-yl]-piperidin-1-yl}-propionitrile]: the Ki at JAK2 was 125 nM; at JAK3, 126 nM; at JAK1 it was 26.2 nM; on TYK2, 321 nM.
The corresponding values for `CCC(COC)n1c(C)nc2cnc3[nH]ccc3c21` (racemic) [Example 415, 1-(1-Methoxymethyl-propyl)-2-methyl-1,6-dihydro-1,3,5,6-tetraaza-as-indacene] are 233 nM, 109 nM, 115 nM and 919 nM.
The corresponding values for `Cc1nc2cnc3[nH]ccc3c2n1C(C)CCO` (racemic) [Example 416, 3-(2-Methyl-6H-1,3,5,6-tetraaza-as-indacen-1-yl)-butan-1-ol] are 126 nM, 48.8 nM, 33.6 nM and 339 nM.
The matching figures for `CCC(COC)n1cnc2cnc3[nH]ccc3c21` (racemic) [Example 419, 1-(1-Methoxymethyl-propyl)-1,6-dihydro-1,3,5,6-tetraaza-as-indacene]: 198 nM, 160 nM, 144 nM and 812 nM.
`Cc1nc2cnc3[nH]ccc3c2n1C1CCN(Cc2ccccc2)CC1(F)F` (racemic) [Example 428, 1-(1-Benzyl-3,3-difluoro-piperidin-4-yl)-2-methyl-1,6-dihydro-1,3,5,6-tetraaza-as-indacene]: the Ki at JAK2 came to 0.78 nM; on JAK3, 1.62 nM; on JAK1 it was 0.64 nM; at TYK2, 12.7 nM.
Take `CC(C(=O)N1CCC(n2cnc3cnc4[nH]ccc4c32)CC1)N(C)C` (racemic) [Example 438, 2-Dimethylamino-1-[4-(6H-1,3,5,6-tetraaza-as-indacen-1-yl)-piperidin-1-yl]-propan-1-one]: the Ki was found to be 184 nM at JAK2, 2380 nM at JAK3, 23.3 nM on JAK1 and 823 nM at TYK2.
